This is an account of results in patent US20250214976A1, “GPR35 MODULATORS AND USES THEREOF” (Crossignal Therapeutics, Inc., priority 2022, published 2025).

In the assay the target is T1, human GPR35 (Homo sapiens, UniProt Q9HC97).
T1 construct: expressed in transfected cells; host or cells: HEK293
Put plainly: Luciferase Reporter Assay (YAP responsive element) in HEK293 cells stably transfected with human GPR35. Conditions: overnight incubation. Format: cell-based. As for the experimental part: HEK293 cells stably transfected with human GPR35 were maintained in Dulbecco's Modified Eagle Medium (DMEM) supplemented with 10% FBS and 300 μg/mL Zeocin and 200 μg/mL Hygromycin at 37° C., 10% CO2. On Day 1, cells were plated in poly-D-lysine coated 96-well tissue culture plate in regular growth medium (DMEM/10% FBS/300 μg/mL Zeocin/200 μg/mL Hygromycin. On the next day, luciferase reporter plasmid DNA with YAP responsive element was transfected into cells using lipofectamine 2000 (Invitrogen) following manufacture's protocol. After transfection for 6 hr., cells were treated with testing compounds in fasting DMEM medium (phenol red free, FBS free) at varying compound concentrations ranging from 10 μM to […] in a 3-fold serial diluted fashion. After an overnight incubation, the luciferase activities were measured with SteadyLite Plus Kit (PerkinElmer) according to manufacturer's protocol. IC50 was determined by fitting the dose-response data to a four-parameter logistic curve using GraphPad Prism.
The symbol “+” indicates IC50 is greater than […]. “++” indicates IC50>100 nM but ≤[…]. “+++” indicates IC50≤100 nM.
(In general: Reporter assays use an easily measured gene product as a stand-in for the process of interest.)

T1 sequence (Q9HC97 whole entry): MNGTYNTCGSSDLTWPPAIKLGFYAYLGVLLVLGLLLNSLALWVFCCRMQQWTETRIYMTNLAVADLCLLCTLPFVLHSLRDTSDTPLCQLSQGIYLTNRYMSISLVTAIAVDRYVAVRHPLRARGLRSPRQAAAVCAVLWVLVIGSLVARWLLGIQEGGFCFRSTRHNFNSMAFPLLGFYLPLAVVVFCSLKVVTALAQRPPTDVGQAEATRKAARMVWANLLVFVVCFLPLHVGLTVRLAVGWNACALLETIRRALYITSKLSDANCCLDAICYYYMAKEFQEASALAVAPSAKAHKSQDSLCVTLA

What is called IC50 is the concentration that inhibits the measured activity by half. Higher therefore signals a need for much substance. The molecule `O=C(Nc1ccc(OCc2ccc(F)cc2Cl)cc1)c1coc2cc(-c3noc(=O)[nH]3)c(F)cc12` [Compound 1-24, N-(4-((2-chloro-4-fluorobenzyl)oxy)phenyl)-5-fluoro-6-(5-oxo-4,5-dihydro-1,2,4-oxadiazol-3-yl)benzofuran-3-carboxamide] showed an IC50 of at most 100 nM.

Consider `CC1(Oc2ccc(NC(=O)c3coc4cc(-c5nnn[nH]5)ccc34)cc2F)CC1` [Compound 1-15, N-(3-fluoro-4-(1-methylcyclopropoxy)phenyl)-6-(1H-tetrazol-5-yl)benzofuran-3-carboxamide], for which the IC50 is at most 100 nM.

As to `O=C(O)c1ccc2c(C(=O)Nc3ccc(OC4CCC4)c(F)c3)coc2c1` [Compound 1-3, 3-((4-cyclobutoxy-3-fluorophenyl)carbamoyl)benzofuran-6-carboxylic acid], the IC50 is above 1000 nM.

As for `O=C(Nc1ccc(OCc2ccc(F)cn2)cc1)c1coc2cc(-c3nnn[nH]3)c(F)cc12` [Compound 1-47, 5-fluoro-N-(4-((5-fluoropyridin-2-yl)methoxy)phenyl)-6-(1H-tetrazol-5-yl)benzofuran-3-carboxamide], the IC50 was 100 to 1000 nM.

`O=C(Nc1ccc(OCc2cc(F)c(F)cc2Cl)cc1)c1coc2cc(-c3nnn[nH]3)c(F)cc12` [Compound 1-50, N-(4-((2-chloro-4,5-difluorobenzyl)oxy)phenyl)-5-fluoro-6-(1H-tetrazol-5-yl)benzofuran-3-carboxamide] had an IC50 of 100 to 1000 nM.

In the case of `N#Cc1cc(Cl)ccc1COc1ccc(NC(=O)c2coc3cc(-c4nnn[nH]4)c(F)cc23)cc1` [Compound 1-52, N-(4-((4-chloro-2-cyanobenzyl)oxy)phenyl)-5-fluoro-6-(1H-tetrazol-5-yl)benzofuran-3-carboxamide], the concentration for half-maximal inhibition (IC50) was 100 to 1000 nM.

`O=C(Nc1ccc(OCc2ccc(F)cc2Cl)c(F)c1)c1coc2cc(OCc3nnn[nH]3)ccc12` [Compound 1-5, 6-((1H-tetrazol-5-yl)methoxy)-N-(4-((2-chloro-4-fluorobenzyl)oxy)-3-fluorophenyl)benzofuran-3-carboxamide] yielded an IC50 above 1000 nM.

For the molecule `O=C(Nc1ccc(OCc2ccc(Cl)c(F)c2)cc1)c1coc2cc(-c3nnn[nH]3)c(F)cc12` [Compound 1-49, N-(4-((4-chloro-3-fluorobenzyl)oxy)phenyl)-5-fluoro-6-(1H-tetrazol-5-yl)benzofuran-3-carboxamide], the concentration for half-maximal inhibition (IC50) was at most 100 nM.

As for `O=C(Nc1ccc(OCc2cc(F)c(Cl)c(F)c2)cc1)c1coc2cc(-c3nnn[nH]3)c(F)cc12` [Compound 1-53, N-(4-((4-chloro-3,5-difluorobenzyl)oxy)phenyl)-5-fluoro-6-(1H-tetrazol-5-yl)benzofuran-3-carboxamide], the IC50 was at most 100 nM.

For the molecule `O=C(Nc1ccc(OC2CCC2)c(F)c1)c1coc2cc(-c3nnn[nH]3)ccc12` [Compound 1-2, N-(4-cyclobutoxy-3-fluorophenyl)-6-(1H-tetrazol-5-yl)benzofuran-3-carboxamide], the IC50 is at most 100 nM.

Molecule `O=C(Nc1ccc(OCc2ccc(F)cc2Cl)cc1)c1coc2cc(-c3nnn[nH]3)c(F)cc12` [Compound 1-18, N-(4-((2-chloro-4-fluorobenzyl)oxy)phenyl)-5-fluoro-6-(1H-tetrazol-5-yl)benzofuran-3-carboxamide] had an IC50 of at most 100 nM.

For the molecule `O=C(Nc1ccc(OCc2ccc(Cl)cc2F)cc1)c1coc2cc(-c3nnn[nH]3)c(F)cc12` [Compound 1-41, N-(4-((4-chloro-2-fluorobenzyl)oxy)phenyl)-5-fluoro-6-(1H-tetrazol-5-yl)benzofuran-3-carboxamide], the IC50 is at most 100 nM.

Turning to `O=C(Nc1ccc(OCc2ccc(F)cc2Cl)cc1)c1coc2cc(Oc3nnn[nH]3)c(F)cc12` [Compound 1-39, 6-((1H-tetrazol-5-yl)oxy)-N-(4-((2-chloro-4-fluorobenzyl)oxy)phenyl)-5-fluorobenzofuran-3-carboxamide], the IC50 lay in the range of 100 to 1000 nM.

Molecule `O=C(Nc1ccc(N2CCC[C@H]2C(F)(F)F)c(F)c1)c1coc2cc(-c3nnn[nH]3)c(F)cc12` [Compound 1-32, (S)-5-fluoro-N-(3-fluoro-4-(2-(trifluoromethyl)pyrrolidin-1-yl)phenyl)-6-(1H-tetrazol-5-yl)benzofuran-3-carboxamide] came in with a 50% inhibitory concentration (IC50) of 100 to 1000 nM.

In turn, `O=C(Nc1ccc(OC(CF)CF)c(F)c1)c1coc2cc(-c3nnn[nH]3)c(F)cc12` [Compound 1-35, N-(4-((1,3-difluoropropan-2-yl)oxy)-3-fluorophenyl)-5-fluoro-6-(1H-tetrazol-5-yl)benzofuran-3-carboxamide] yielded a half-maximal inhibitory concentration (IC50) of 100 to 1000 nM.

As to `O=C(Nc1ccc(O[C@@H]2CCOC2)c(F)c1)c1coc2cc(-c3nnn[nH]3)c(F)cc12` [Compound 1-22, (R)-5-fluoro-N-(3-fluoro-4-((tetrahydrofuran-3-yl)oxy)phenyl)-6-(1H-tetrazol-5-yl)benzofuran-3-carboxamide], the half-maximal inhibitory concentration (IC50) was above 1000 nM.

As to `NC(=O)c1cc2occ(C(=O)Nc3ccc(OCc4ccc(F)cc4Cl)cc3)c2cc1F` [Compound 1-23, N3-(4-((2-chloro-4-fluorobenzyl)oxy)phenyl)-5-fluorobenzofuran-3,6-dicarboxamide], the IC50 is above 1000 nM.

Molecule `O=C(Nc1ccc(OC2COC2)c(F)c1)c1coc2cc(-c3nnn[nH]3)c(F)cc12` [Compound 1-28, 5-fluoro-N-(3-fluoro-4-(oxetan-3-yloxy)phenyl)-6-(1H-tetrazol-5-yl)benzofuran-3-carboxamide] returned an IC50 of 100 to 1000 nM.

The molecule `C[C@@H](Oc1ccc(NC(=O)c2coc3cc(-c4nnn[nH]4)c(F)cc23)cc1)c1ccc(F)cc1Cl` (single isomer, unassigned) [Compound 1-26] gave an IC50 above 1000 nM.

The molecule `O=C(Nc1ccc(C2CCCC2)c(F)c1)c1csc2cc(-c3nnn[nH]3)ccc12` [Compound 1-58, N-(4-cyclopentyl-3-fluorophenyl)-6-(1H-tetrazol-5-yl)benzo[b]thiophene-3-carboxamide] registered an IC50 of at most 100 nM.

As to `O=C(Nc1cc(F)c(OC2CCCC2)cc1F)c1coc2cc(-c3nnn[nH]3)ccc12` [Compound 1-10, N-(4-(cyclopentyloxy)-2,5-difluorophenyl)-6-(1H-tetrazol-5-yl)benzofuran-3-carboxamide], the IC50 is at most 100 nM.

For the molecule `O=C(Nc1ccc(OCc2cc(Cl)cs2)cc1)c1coc2cc(-c3nnn[nH]3)c(F)cc12` [Compound 1-56, N-(4-((4-chlorothiophen-2-yl)methoxy)phenyl)-5-fluoro-6-(1H-tetrazol-5-yl)benzofuran-3-carboxamide], the IC50 was at most 100 nM.

Consider `N#Cc1ccc(COc2ccc(NC(=O)c3coc4cc(-c5nnn[nH]5)c(F)cc34)cc2)c(Cl)c1` [Compound 1-46, N-(4-((2-chloro-4-cyanobenzyl)oxy)phenyl)-5-fluoro-6-(1H-tetrazol-5-yl)benzofuran-3-carboxamide], for which the IC50 lay within 100 to 1000 nM.

The molecule `O=C(Nc1ccc(OCc2cc(F)c(Cl)cc2F)cc1)c1coc2cc(-c3nnn[nH]3)c(F)cc12` [Compound 1-55, N-(4-((4-chloro-2,5-difluorobenzyl)oxy)phenyl)-5-fluoro-6-(1H-tetrazol-5-yl)benzofuran-3-carboxamide] displayed an IC50 of 100 to 1000 nM.

Molecule `O=C(Nc1ccc(OC2CCCC2)c(F)c1)c1coc2cc(-c3nnn[nH]3)c(F)cc12` [Compound 1-20, N-(4-(cyclopentyloxy)-3-fluorophenyl)-5-fluoro-6-(1H-tetrazol-5-yl)benzofuran-3-carboxamide] registered an IC50 of at most 100 nM.

For `CC1(Oc2ccc(NC(=O)c3coc4cc(-c5nnn[nH]5)c(F)cc34)cc2F)CC1` [Compound 1-16, 5-fluoro-N-(3-fluoro-4-(1-methylcyclopropoxy)phenyl)-6-(1H-tetrazol-5-yl)benzofuran-3-carboxamide], the IC50 was at most 100 nM.

Molecule `O=C(Nc1ccc(N2CCC(F)(F)C2)c(F)c1)c1coc2cc(-c3nnn[nH]3)c(F)cc12` [Compound 1-34, N-(4-(3,3-difluoropyrrolidin-1-yl)-3-fluorophenyl)-5-fluoro-6-(1H-tetrazol-5-yl)benzofuran-3-carboxamide] had an IC50 of at most 100 nM.

On to `O=C(Nc1ccc(N2CCC[C@@H]2C(F)(F)F)c(F)c1)c1coc2cc(-c3nnn[nH]3)c(F)cc12` [Compound 1-33, (R)-5-fluoro-N-(3-fluoro-4-(2-(trifluoromethyl)pyrrolidin-1-yl)phenyl)-6-(1H-tetrazol-5-yl)benzofuran-3-carboxamide], for which the IC50 was 100 to 1000 nM.

The molecule `O=C(Nc1ccc(OCc2ccc(F)cc2Cl)cc1)c1coc2cc(-c3nnn[nH]3)ccc12` [Compound 1-13, N-(4-((2-chloro-4-fluorobenzyl)oxy)phenyl)-6-(1H-tetrazol-5-yl)benzofuran-3-carboxamide] yielded an IC50 of at most 100 nM.

`O=C(Nc1ccc(OCc2ccc(Cl)cc2Cl)cc1)c1coc2cc(-c3nnn[nH]3)c(F)cc12` [Compound 1-19, N-(4-((2,4-dichlorobenzyl)oxy)phenyl)-5-fluoro-6-(1H-tetrazol-5-yl)benzofuran-3-carboxamide] came in with an IC50 of 100 to 1000 nM.

`O=C(Nc1ccc(OC2CC(F)(F)C2)c(F)c1)c1coc2cc(-c3nnn[nH]3)c(F)cc12` [Compound 1-27, N-(4-(3,3-difluorocyclobutoxy)-3-fluorophenyl)-5-fluoro-6-(1H-tetrazol-5-yl)benzofuran-3-carboxamide] yielded an IC50 of 100 to 1000 nM.

For the molecule `O=C(Nc1ccc(OCc2cc(Cl)c(Cl)s2)cc1)c1coc2cc(-c3nnn[nH]3)c(F)cc12` [Compound 1-57, N-(4-((4,5-dichlorothiophen-2-yl)methoxy)phenyl)-5-fluoro-6-(1H-tetrazol-5-yl)benzofuran-3-carboxamide], the IC50 lay in the range of 100 to 1000 nM.
